Measured values from patent publication US10150728B2, “Alkylene derivatives” (Shionogi & Co., Ltd., priority 2013, dated 2018).

Each compound was assayed against recombinant human ACC2 (Homo sapiens (Human), UniProt O00763) (assay: Measurement of inhibitory activity on human ACC2 (MALDI-TOF MS, acetyl CoA to malonyl CoA conversion)). Settings: Tables 155-159.
Assay type: biochemical
Procedure, shortened: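 His-tagged human ACC2 (residues 27–2458) from baculovirus-infected Sf-9 cells was preincubated 1 h in pH 7.4 HEPES-KOH buffer with MgCl2, 6-10 mM potassium citrate, glutathione and BSA. Substrate solution held 1 mM ATP, 0.8 mM acetyl CoA and 25-50 mM bicarbonate. After 1–3 h at room temperature, malonyl CoA/(malonyl+acetyl CoA) was read by negative-mode MALDI-TOF MS; citrate, bicarbonate and time varied by enzyme lot.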

recombinant human ACC2, sequence (O00763 27-2458): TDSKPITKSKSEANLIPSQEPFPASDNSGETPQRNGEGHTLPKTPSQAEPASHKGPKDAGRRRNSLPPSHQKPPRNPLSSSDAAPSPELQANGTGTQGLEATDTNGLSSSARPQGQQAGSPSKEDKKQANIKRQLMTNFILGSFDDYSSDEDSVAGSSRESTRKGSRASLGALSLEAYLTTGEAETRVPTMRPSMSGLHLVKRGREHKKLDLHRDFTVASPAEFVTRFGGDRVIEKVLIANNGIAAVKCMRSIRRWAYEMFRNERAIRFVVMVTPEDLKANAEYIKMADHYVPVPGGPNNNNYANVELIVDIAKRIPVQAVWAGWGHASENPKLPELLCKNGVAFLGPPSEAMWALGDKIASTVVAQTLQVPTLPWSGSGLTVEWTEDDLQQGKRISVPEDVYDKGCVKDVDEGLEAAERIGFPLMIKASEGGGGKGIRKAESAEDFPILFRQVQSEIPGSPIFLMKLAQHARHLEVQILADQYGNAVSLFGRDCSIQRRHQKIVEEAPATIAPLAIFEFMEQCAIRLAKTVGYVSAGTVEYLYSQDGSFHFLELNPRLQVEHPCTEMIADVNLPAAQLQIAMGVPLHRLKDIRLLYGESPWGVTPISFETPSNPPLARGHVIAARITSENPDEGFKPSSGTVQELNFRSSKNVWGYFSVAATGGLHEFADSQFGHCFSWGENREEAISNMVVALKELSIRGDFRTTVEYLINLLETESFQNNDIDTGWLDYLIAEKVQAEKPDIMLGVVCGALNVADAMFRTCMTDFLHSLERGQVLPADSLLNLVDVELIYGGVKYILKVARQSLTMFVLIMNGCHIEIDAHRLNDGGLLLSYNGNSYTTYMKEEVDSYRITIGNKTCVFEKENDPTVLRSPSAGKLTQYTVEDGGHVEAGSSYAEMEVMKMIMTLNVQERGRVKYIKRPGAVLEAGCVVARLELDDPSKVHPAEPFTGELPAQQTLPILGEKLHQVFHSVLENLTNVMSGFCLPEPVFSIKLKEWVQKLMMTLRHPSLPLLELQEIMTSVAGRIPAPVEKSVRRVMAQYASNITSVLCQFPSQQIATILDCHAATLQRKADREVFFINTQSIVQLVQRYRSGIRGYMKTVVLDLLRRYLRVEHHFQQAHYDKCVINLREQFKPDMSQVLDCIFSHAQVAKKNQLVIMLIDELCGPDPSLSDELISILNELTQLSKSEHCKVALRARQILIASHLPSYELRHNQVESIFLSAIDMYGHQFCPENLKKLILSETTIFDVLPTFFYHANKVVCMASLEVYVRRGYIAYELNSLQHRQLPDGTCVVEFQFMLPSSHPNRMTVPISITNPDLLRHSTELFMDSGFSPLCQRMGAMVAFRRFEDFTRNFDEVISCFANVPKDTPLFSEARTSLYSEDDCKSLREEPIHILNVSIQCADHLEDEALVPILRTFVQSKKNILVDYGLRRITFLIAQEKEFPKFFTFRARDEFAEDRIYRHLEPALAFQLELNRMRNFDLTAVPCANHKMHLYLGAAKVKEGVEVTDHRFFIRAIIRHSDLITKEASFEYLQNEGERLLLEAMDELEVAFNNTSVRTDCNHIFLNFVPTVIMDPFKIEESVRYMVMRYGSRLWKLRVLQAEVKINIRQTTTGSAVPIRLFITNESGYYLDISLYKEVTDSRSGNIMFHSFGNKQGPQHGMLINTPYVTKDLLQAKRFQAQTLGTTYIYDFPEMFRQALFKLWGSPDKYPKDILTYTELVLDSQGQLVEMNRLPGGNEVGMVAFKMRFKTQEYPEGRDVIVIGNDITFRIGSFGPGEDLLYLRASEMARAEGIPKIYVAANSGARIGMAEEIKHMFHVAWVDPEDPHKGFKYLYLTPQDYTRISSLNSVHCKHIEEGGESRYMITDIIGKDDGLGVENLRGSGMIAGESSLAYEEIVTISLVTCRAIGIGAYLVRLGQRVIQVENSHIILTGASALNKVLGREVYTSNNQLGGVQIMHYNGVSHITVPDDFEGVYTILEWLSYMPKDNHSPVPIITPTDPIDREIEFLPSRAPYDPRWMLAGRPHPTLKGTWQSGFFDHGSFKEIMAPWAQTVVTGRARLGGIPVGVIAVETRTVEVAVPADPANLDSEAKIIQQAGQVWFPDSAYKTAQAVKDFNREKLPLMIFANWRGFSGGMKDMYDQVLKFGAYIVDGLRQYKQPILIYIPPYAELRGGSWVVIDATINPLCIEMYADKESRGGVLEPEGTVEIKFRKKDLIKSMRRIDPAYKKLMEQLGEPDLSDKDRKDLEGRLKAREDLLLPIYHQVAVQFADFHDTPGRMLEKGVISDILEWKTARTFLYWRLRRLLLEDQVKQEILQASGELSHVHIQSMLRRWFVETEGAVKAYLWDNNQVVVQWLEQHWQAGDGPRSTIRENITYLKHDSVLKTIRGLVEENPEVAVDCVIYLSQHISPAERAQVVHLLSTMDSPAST

SMILES | IC50
CC(=O)N[C@@H](C)CO[C@H]1C[C@H](COc2ncnc(NCc3cccc(C(F)(F)F)c3)c2Cl)C1 [Compound I-342] | 108 nM
CC(=O)N[C@@H](C)CO[C@H]1C[C@H](COc2ncnc(NCc3cccc(C#N)c3)c2Cl)C1 [Compound I-343] | 118 nM
CC(=O)N[C@@H](C)CO[C@H]1C[C@H](COc2ncnc(NCc3ccc(Cl)cc3)c2Cl)C1 [Compound I-344] | 13 nM
CC(=O)N[C@@H](C)CO[C@H]1C[C@H](COc2ncnc(OCCc3ccccc3)c2Cl)C1 [Compound I-345] | 38 nM
CC(=O)N[C@@H](C)CO[C@H]1C[C@H](COc2ncnc(OCc3cccc(C#N)c3)c2Cl)C1 [Compound I-346] | 19 nM
CC(=O)N[C@@H](C)CO[C@H]1C[C@H](COc2ncnc(OCc3ccc(C#N)cc3)c2Cl)C1 [Compound I-347] | 55 nM
COc1ccc(COc2ncnc(OC[C@H]3C[C@H](OC[C@H](C)NC(C)=O)C3)c2Cl)cn1 [Compound I-348] | 57 nM
CC(=O)N[C@@H](C)CO[C@H]1C[C@H](COc2ncnc(OCc3ccc(C(F)(F)F)cc3)c2Cl)C1 [Compound I-349] | 39 nM
CC(=O)N[C@@H](C)CO[C@H]1C[C@H](COc2ncnc(OCc3cccc(C(F)(F)F)c3)c2Cl)C1 [Compound I-350] | 49 nM
CC(=O)N[C@@H](C)CO[C@H]1C[C@H](COc2ncnc(OCc3ccc(C(F)(F)F)nc3)c2Cl)C1 [Compound I-351] | 87 nM
CC(=O)N[C@@H](C)CO[C@H]1C[C@H](COc2nccc3c2ccn3CC2CC2)C1 [Compound I-352] | 22 nM
CC(=O)N[C@@H](C)CO[C@H]1C[C@H](COc2ncnc(OCc3ncc(Cl)cn3)c2Cl)C1 [Compound I-353] | 11 nM
CC(=O)N[C@@H](C)CO[C@H]1C[C@H](COc2ncnc(OCc3ccc(F)cn3)c2Cl)C1 [Compound I-354] | 11 nM
CC(=O)N[C@@H](C)CO[C@H]1C[C@H](COc2ncnc(OCC3CC3)c2Cl)C1 [Compound I-355] | 18 nM
CC(=O)N[C@@H](C)CO[C@H]1C[C@H](COc2ncnc(OCC3CC3(F)F)c2Cl)C1 (stereo partly shown) [Compound I-356] | 66 nM
CC(=O)N[C@@H](C)CO[C@H]1C[C@H](COc2ncnc(OCC(C)(F)F)c2Cl)C1 [Compound I-357] | 103 nM
CC(=O)N[C@@H](C)CO[C@H]1C[C@H](COc2nccc(N3CCCC3)c2F)C1 [Compound I-358] | 19 nM
CC(=O)N[C@@H](C)CO[C@H]1C[C@H](COc2ncnc3c2ccn3CC2CC2)C1 [Compound I-359] | 21 nM
CC(=O)N[C@@H](C)CO[C@H]1C[C@H](COc2ncnc(OCc3cc(F)ccn3)c2Cl)C1 [Compound I-360] | 17 nM
CC(=O)N[C@@H](C)CO[C@H]1C[C@H](COc2ncnc(OCc3ccc(Cl)nn3)c2Cl)C1 [Compound I-361] | 570 nM
CC(=O)N[C@@H](C)CO[C@H]1C[C@H](COc2ncnc3c2ccn3C(C)C2CC2)C1 (stereo partly shown) [Compound I-362] | 130 nM
CC(=O)N[C@@H](C)CO[C@H]1C[C@H](COc2ncnc(OCc3cc(F)ccn3)c2F)C1 [Compound I-363] | 32 nM
CC(=O)N[C@@H](C)CO[C@H]1C[C@H](COc2nccc(N3CCC(F)(F)C3)c2Cl)C1 [Compound I-364] | 44 nM
CC(=O)N[C@@H](C)CO[C@H]1C[C@H](COc2nccc(OC3C[C@@H]4CC[C@@H]3C4)c2Cl)C1 (stereo partly shown) [Compound I-365] | 100 nM

SMILES | IC50
CC(=O)N[C@@H](C)CO[C@H]1C[C@H](COc2nccc(OC3C[C@@H]4CC[C@@H]3C4)c2Cl)C1 (stereo partly shown) [Compound I-366] | 31 nM
CC(=O)N[C@@H](C)CO[C@H]1C[C@H](COc2nccc(OC3CCC3)c2Cl)C1 [Compound I-367] | 113 nM
CC(=O)N[C@@H](C)CO[C@H]1C[C@H](COc2nccc(OC3CCCCC3)c2Cl)C1 [Compound I-368] | 48 nM
CC(=O)N[C@@H](C)CO[C@H]1C[C@H](COc2nccc(OCC3CC3C)c2Cl)C1 (stereo partly shown) [Compound I-369] | 19 nM
CC(=O)N[C@@H](C)CO[C@H]1C[C@H](COc2nccc(OCC3(C)CC3)c2Cl)C1 [Compound I-370] | 13 nM
CC(=O)N[C@@H](C)CO[C@H]1C[C@H](COc2nccc(OCC3(C#N)CC3)c2Cl)C1 [Compound I-371] | 198 nM
CC(=O)N[C@@H](C)CO[C@H]1C[C@H](COc2nccc(OCC(C)(C)C)c2Cl)C1 [Compound I-372] | 13 nM
COCCOc1ccnc(OC[C@H]2C[C@H](OC[C@H](C)NC(C)=O)C2)c1Cl [Compound I-373] | 894 nM
CC(=O)N[C@@H](C)CO[C@H]1C[C@H](COc2nccc(OCC3COC3)c2Cl)C1 [Compound I-374] | 637 nM
CC(=O)N[C@@H](C)CO[C@H]1C[C@H](COc2nccc(N3CCC(F)(F)CC3)c2Cl)C1 [Compound I-375] | 102 nM
CC(=O)N[C@@H](C)CO[C@H]1C[C@H](COc2ncnc(OCc3ccccc3)c2Cl)C1 [Compound I-376] | 7 nM
CC(=O)N[C@@H](C)CO[C@H]1C[C@H](COc2ncnc(OCc3ccccn3)c2Cl)C1 [Compound I-377] | 39 nM
CC(=O)N[C@@H](C)CO[C@H]1C[C@H](COc2nccc(N3CCCC3)c2C)C1 [Compound I-378] | 144 nM
COc1c(-c2ccc(F)cc2)ccnc1OC[C@H]1C[C@H](OC[C@H](C)NC(C)=O)C1 [Compound I-379] | 258 nM
CC(=O)N[C@@H](C)CO[C@H]1C[C@H](COc2nccc(-c3ncc(C(F)(F)F)cn3)c2C)C1 [Compound I-380] | 59 nM
CC(=O)N[C@@H](C)CO[C@H]1C[C@H](COc2nccc3c2cnn3CC2CC2)C1 [Compound I-381] | 155 nM
CC(=O)N[C@@H](C)CO[C@H]1C[C@H](COc2nccc3c2OCCN3Cc2ccccc2)C1 [Compound I-382] | 176 nM
CC(=O)N[C@@H](C)CO[C@H]1C[C@H](COc2ncnc(OCc3ccccc3)c2F)C1 [Compound I-383] | 8 nM
CC(=O)N[C@@H](C)CO[C@H]1C[C@H](COc2ncnc(OCc3cccc(Cl)n3)c2Cl)C1 [Compound I-384] | 364 nM
CC(=O)N[C@@H](C)CO[C@H]1C[C@H](COc2ncnc(OCc3cc(Cl)ccn3)c2Cl)C1 [Compound I-385] | 4 nM
CC(=O)N[C@@H](C)CO[C@H]1C[C@H](COc2ncnc(OCc3ncccc3Cl)c2Cl)C1 [Compound I-386] | 70 nM
CC(=O)N[C@@H](C)CO[C@H]1C[C@H](COc2nccc3c2cnn3Cc2ccccc2)C1 [Compound I-387] | 392 nM
CC(=O)N[C@@H](C)CO[C@H]1C[C@H](COc2ncnc(OCc3ccccc3F)c2Cl)C1 [Compound I-388] | 14 nM
CC(=O)N[C@@H](C)CO[C@H]1C[C@H](COc2ncnc(OCc3cccc(F)c3)c2Cl)C1 [Compound I-389] | 8 nM

SMILES | IC50
CC(=O)N[C@@H](C)CO[C@H]1C[C@H](COc2ncnc(OCc3ccc(F)cc3)c2Cl)C1 [Compound I-390] | 7 nM
CC(=O)N[C@@H](C)CO[C@H]1C[C@H](COc2ncnc(NCc3ccccc3)c2Cl)C1 [Compound I-391] | 21 nM
CC(=O)N[C@@H](C)CO[C@H]1C[C@H](COc2ncnc(OCc3cccnc3)c2Cl)C1 [Compound I-392] | 69 nM
CC(=O)N[C@@H](C)CO[C@H]1C[C@H](COc2ncnc(OCc3ccncc3)c2Cl)C1 [Compound I-393] | 155 nM
CC(=O)N[C@@H](C)CO[C@H]1C[C@](C)(COc2nccc(-c3ccc(F)cc3)c2Cl)C1 [Compound I-394] | 18 nM
CC(=O)N[C@@H](C)CO[C@H]1C[C@H](COc2nccc(OCc3ccccc3)c2Cl)C1 [Compound I-395] | 7 nM
CC(=O)N[C@@H](C)CO[C@H]1C[C@H](COc2ncnc(OCc3ccc(Cl)cn3)c2Cl)C1 [Compound I-396] | 8 nM
CC(=O)N[C@@H](C)CO[C@H]1C[C@H](COc2ncnc(Oc3noc4ccccc34)c2Cl)C1 [Compound I-397] | 31 nM
CC(=O)N[C@@H](C)CO[C@H]1C[C@H](COc2ncnc(-n3oc4ccccc4c3=O)c2Cl)C1 [Compound I-398] | 115 nM
CC(=O)N[C@@H](C)CO[C@H]1C[C@H](COc2ncnc(Oc3nsc4ccccc34)c2Cl)C1 [Compound I-399] | 40 nM
CC(=O)N[C@@H](C)CO[C@]1(C)C[C@@H](COc2nccc(-c3ccc(F)cc3)c2Cl)C1 [Compound I-400] | 17 nM
CC(=O)N[C@@H](C)CO[C@H]1C[C@H](COc2nccc(NCc3ccccc3)c2Cl)C1 [Compound I-401] | 23 nM
CC(=O)N[C@@H](C)CO[C@H]1C[C@H](COc2ncnc(N(C)Cc3ccccc3)c2Cl)C1 [Compound I-402] | 83 nM
CC(=O)N[C@@H](C)CO[C@H]1C[C@H](COc2ncnc(OCc3ccc(C)cn3)c2Cl)C1 [Compound I-403] | 43 nM
COc1cccc(COc2ncnc(OC[C@H]3C[C@H](OC[C@H](C)NC(C)=O)C3)c2Cl)n1 [Compound I-404] | 676 nM
CC(=O)N[C@@H](C)CO[C@H]1C[C@H](COc2ncnc(OCc3ncccc3F)c2Cl)C1 [Compound I-405] | 62 nM
CC(=O)N[C@@H](C)CO[C@H]1C[C@H](COc2ncnc(OCc3cnccn3)c2Cl)C1 [Compound I-406] | 131 nM
CCOc1ccc(COc2ncnc(OC[C@H]3C[C@H](OC[C@H](C)NC(C)=O)C3)c2Cl)cc1 [Compound I-407] | 533 nM
CCOc1cccc(COc2ncnc(OC[C@H]3C[C@H](OC[C@H](C)NC(C)=O)C3)c2Cl)c1 [Compound I-408] | 465 nM
CC(=O)N[C@@H](C)CO[C@H]1C[C@H](COc2ncnc(OCc3nccs3)c2Cl)C1 [Compound I-409] | 74 nM
CC(=O)N[C@@H](C)CO[C@H]1C[C@H](COc2ncnc(OCc3ncc(C)s3)c2Cl)C1 [Compound I-410] | 15 nM
CC(=O)N[C@@H](C)CO[C@H]1C[C@H](COc2ncnc(OCc3csc(Cl)n3)c2Cl)C1 [Compound I-411] | 937 nM
